The values that follow are results of earlier work, collected in patent US9211338B2, “Composition and method for treating HPV” (Universite Libre de Bruxelles, priority 2011, dated 2015).

Structures are written as SMILES. Like-named read-outs stand apart in the source and are kept apart here.

One data set concerns HPV-positive cells. The settings on record: in vitro.

Regarding `Nc1ccn(C[C@@H](CO)OCP(=O)(O)O)c(=O)n1` [cidofovir], the clinical outcome is reported as “stabilization of disseminated papillomatosis” with HPV (intravenous (systemic), disseminated papillomatosis) and “complete regression of the tumor” in the data set on HPV (local intratumor injections, patients with papillomatous lesions). The “inhibition of cell proliferation” value with HPV-positive cells was “concentration- and time-dependent inhibition of cell proliferation”.
